According to patent US7824853B2, “Complex comprising at least two biospecific elements separated by a nucleic acid linker e.g. for identification of drug delivery candidates combinatorial library of such complexes” (Avaris AB, priority 2002, dated 2010):

Test system: peripheral blood mononuclear cells, population with the characteristics of monocytes
Assay: Monocyte binding assay (FACS, binding and uptake of fluorescent complexes)
Type: cell-based
Settings: monocytic population; incubated one hour at +37° C., then trypsinisation; 6-FAM labelled 48-mer oligo
From the text: Oligonucleotides (48-mers) with recognition sites for 2 different peptide-nucleic-acid sequences and with a fluorescent label were designed and manufactured. Each binding site corresponds to 15 nucleotides. The 48-mer oligos contain in the 5′ end the fluorescent label, 6-FAM, followed by three thymidine residues as spacer. There is a single central target site (GGAAGGGCCGAGCGC, Seq. Id. No. 2) surrounded by two identical adjacent target sites (CAATCGGAACGGATC, Seq. Id. No. 1).
Peptide-nucleic-acid-linker3-peptide (=ligand) fusions were generated as described before (Brandén L J, Mohamed A J, Smith C I E. A peptide nucleic acid-nuclear localisation signal fusion that mediates nuclear transport of DNA. Nature Biotechnol 17: 784-787, 1999). […]
Peptide-nucleic-acid-linker3-peptide (=ligand) fusions were hybridised to oligonucleotides in order to generate the novel biomolecular complexes. […] Following the incubation cells were analysed in a fluorescent activated cell sorter (FACS SCAN, Becton Dickinson, Mountain View, Calif.).

TAT (FE2): PNA-linker3-HIV TAT peptide (grkkrrqrrrppqc) fusion hybridised to central target site Seq. Id. No. 2 of the 48-mer oligo
Percentage of fluorescent cells: 0.93%
